Data taken from patent US9856216B2, “Compounds as TNIK, IKKε and TBK1 inhibitors and pharmaceutical composition comprising same” (GREEN CROSS CORPORATION, priority 2015, dated 2018).
Counter-ions that a name gives are not always drawn.

Columns and labels:
Type in all cases: biochemical
[1] = molecular target: T1, TBK1 (Homo sapiens, UniProt Q9UHD2); experiment: ADP-Glo Kinase Assay, inhibition activity on TBK1
T1 construct: purchased Promega V3991
T1 sequence (Q9UHD2 1-729): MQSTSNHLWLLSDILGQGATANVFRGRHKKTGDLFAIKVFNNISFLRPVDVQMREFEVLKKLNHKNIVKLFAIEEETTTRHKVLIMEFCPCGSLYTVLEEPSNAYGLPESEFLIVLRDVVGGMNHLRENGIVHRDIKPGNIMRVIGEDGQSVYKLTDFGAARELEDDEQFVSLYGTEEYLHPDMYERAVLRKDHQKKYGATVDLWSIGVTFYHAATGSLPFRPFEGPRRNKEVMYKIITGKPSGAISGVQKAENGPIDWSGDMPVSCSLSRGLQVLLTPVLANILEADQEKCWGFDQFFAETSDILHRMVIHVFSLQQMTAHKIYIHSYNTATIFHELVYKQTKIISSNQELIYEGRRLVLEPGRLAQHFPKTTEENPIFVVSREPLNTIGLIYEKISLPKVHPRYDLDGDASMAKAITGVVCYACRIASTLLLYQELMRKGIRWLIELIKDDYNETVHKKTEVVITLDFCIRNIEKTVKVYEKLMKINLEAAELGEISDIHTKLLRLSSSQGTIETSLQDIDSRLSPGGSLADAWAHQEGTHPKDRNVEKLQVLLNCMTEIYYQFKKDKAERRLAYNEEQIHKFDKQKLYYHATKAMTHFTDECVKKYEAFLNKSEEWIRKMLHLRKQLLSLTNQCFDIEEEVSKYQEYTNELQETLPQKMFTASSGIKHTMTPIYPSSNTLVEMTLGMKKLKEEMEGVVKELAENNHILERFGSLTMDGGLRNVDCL
Method: (§1) The inhibition activities on TNIK, IKKε and TBK1 were measured by a luminometer, TNIK/IKKε/TBK1 Kinase Enzyme System (Promega, Ca# V4158; Invitrogen, PR8031B, Promega, Ca# V3991) and ADP-Glo Kinase Assay using ADP-Glo™ Kinase Analysis Kit (Promega, Ca# V9101) and a kinase reaction buffer [40 mM Tris(pH 7.5), 20 mM MgCl2, 0.1 mg/mL BSA] in accordance with the manufacturer's protocol.

[2] = molecular target: T2, IKKε (Homo sapiens, UniProt Q14164); experiment: ADP-Glo Kinase Assay, inhibition activity on IKKε
T2 construct: purchased Invitrogen PR8031B
T2 sequence (Q14164 1-716): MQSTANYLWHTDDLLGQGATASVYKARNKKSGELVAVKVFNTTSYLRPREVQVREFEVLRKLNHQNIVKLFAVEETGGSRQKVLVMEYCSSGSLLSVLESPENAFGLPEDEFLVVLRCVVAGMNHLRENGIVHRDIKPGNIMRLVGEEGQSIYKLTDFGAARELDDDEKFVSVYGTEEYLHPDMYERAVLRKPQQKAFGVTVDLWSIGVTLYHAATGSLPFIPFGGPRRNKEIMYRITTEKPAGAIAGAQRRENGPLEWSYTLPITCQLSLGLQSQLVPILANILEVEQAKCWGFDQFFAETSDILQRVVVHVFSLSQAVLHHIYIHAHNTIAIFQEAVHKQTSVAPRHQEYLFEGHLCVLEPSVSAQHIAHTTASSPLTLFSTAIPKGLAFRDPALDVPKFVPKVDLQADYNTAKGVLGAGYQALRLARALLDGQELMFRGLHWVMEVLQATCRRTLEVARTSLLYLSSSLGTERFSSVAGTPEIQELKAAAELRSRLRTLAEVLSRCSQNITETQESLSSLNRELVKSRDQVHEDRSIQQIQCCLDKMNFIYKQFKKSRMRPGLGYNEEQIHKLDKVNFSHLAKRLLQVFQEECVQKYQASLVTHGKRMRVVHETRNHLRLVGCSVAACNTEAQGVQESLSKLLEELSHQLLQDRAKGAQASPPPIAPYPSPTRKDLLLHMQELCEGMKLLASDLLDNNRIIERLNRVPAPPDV
Method: as §1

[3] = molecular target: T3, TNIK (Homo sapiens, UniProt Q9UKE5); experiment: ADP-Glo Kinase Assay, inhibition activity on TNIK; conditions: read-out: TNIK
T3 construct: purchased Promega V4158
Method: as §1

T3 sequence (Q9UKE5 1-367 limits assumed): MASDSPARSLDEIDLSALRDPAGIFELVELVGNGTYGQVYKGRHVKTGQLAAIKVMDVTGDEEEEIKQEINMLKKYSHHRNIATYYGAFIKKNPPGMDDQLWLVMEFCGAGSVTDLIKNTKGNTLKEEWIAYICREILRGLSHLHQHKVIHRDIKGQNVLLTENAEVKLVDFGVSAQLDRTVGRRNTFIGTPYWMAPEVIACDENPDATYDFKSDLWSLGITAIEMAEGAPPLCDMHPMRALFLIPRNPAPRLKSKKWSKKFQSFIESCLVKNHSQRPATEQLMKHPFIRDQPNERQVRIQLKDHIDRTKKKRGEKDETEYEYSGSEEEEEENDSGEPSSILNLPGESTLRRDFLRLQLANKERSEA

| SMILES | IC50 [1] [nM] | IC50 [2] [nM] | IC50 [3] [nM] |
| --- | --- | --- | --- |
| COc1cccc(Nc2cc(-c3ccc(N)c4c3CNC4=O)ccn2)c1 [Example 68, 7-Amino-4-(2-((3-methoxyphenyl)amino)pyridin-4-yl) isoindolin-1-one] | 1240 | 2640 |  |
| COc1cccc(Nc2ccnc(-c3ccc(N)c4c3CNC4=O)c2)c1 [Example 69, 7-Amino-4-(4-((3-methoxyphenyl)amino)pyridin-2-yl) isoindolin-1-one] | > 10000 |  |  |
| COc1cccc(Nc2nccc(-c3ccc(N)c4c3CNC4=O)n2)c1 [Example 70, 7-Amino-4-(2-((3-methoxyphenyl)amino)pyrimidin-4-yl) isoindolin-1-one] | 51 | 51 |  |
| Cn1cc(Nc2nccc(-c3ccc(N)c4c3CNC4=O)n2)cn1 [Example 71] | 150 | 160 |  |
| Nc1ccc(-c2ccnc(Nc3ccccc3)n2)c2c1C(=O)NC2 [Example 72, 7-Amino-4-(2-(phenylamino)pyrimidin-4-yl)isoindolin-1-one] | 90 | 280 |  |
| Nc1ccc(-c2ccnc(Nc3cccc(F)c3)n2)c2c1C(=O)NC2 [Example 73, 7-Amino-4-(2-((3-fluorophenyl)amino)pyrimidin-4-yl) isoindolin-1-one] | 35 | 350 |  |
| Nc1ccc(-c2ccnc(Nc3ccc(F)cc3)n2)c2c1C(=O)NC2 [Example 74, 7-Amino-4-(2-((4-fluorophenyl)amino)pyrimidin-4-yl) isoindolin-1-one] | 43 | 560 |  |
| COc1ccc(Nc2nccc(-c3ccc(N)c4c3CNC4=O)n2)cc1 [Example 75, 7-Amino-4-(2-((4-methoxyphenyl)amino)pyrimidin-4-yl) isoindolin-1-one] | 110 | 360 |  |
| Nc1ccc(-c2c[nH]c3ncc(-c4ccccc4)cc23)c2c1C(=O)NC2 [Example 79, 7-Amino-4-(5-phenyl-1H-pyrrolo[2,3-b]pyridin-3-yl) isoindolin-1-one] | 640 |  |  |
| Cc1cccc(Nc2ccc(NC(=O)c3ccc(NCCCN4CCCCC4)cc3)c3c2CNC3=O)c1C [Example 472, N-(7-((2,3-dimethylphenyl)amino)-3-oxoisoindolin-4-yl)-4-((3-(piperidin-1-yl)propyl)amino)benzamide] |  |  | 410 |
| Cc1ccccc1Nc1ccc(NC(=O)c2ccc(NCCN3CCCC3)cc2)c2c1CNC2=O [Example 473, N-(3-oxo-7-(o-tolylamino)isoindolin-4-yl)-4-((2-(pyrrolidin-1-yl)ethyl)amino)benzamide] |  |  | 430 |
| COc1ccccc1Nc1ccc(NC(=O)c2ccc(NCCN3CCCC3)cc2)c2c1CNC2=O [Example 474, N-(7-((2-methoxyphenyl)amino)-3-oxoisoindolin-4-yl)-4-((2-(pyrrolidin-1-yl)ethyl)amino)benzamide] |  |  | 440 |
| COc1ccccc1Nc1ccc(NC(=O)c2ccc(NCCCN3CCCC3)cc2)c2c1CNC2=O [Example 475, N-(7-((2-methoxyphenyl)amino)-3-oxoisoindolin-4-yl)-4-((3-(pyrrolidin-1-yl)propyl)amino)benzamide] |  |  | 470 |
| Cc1ccccc1Nc1ccc(NC(=O)c2ccc(NCCCN3CCCC3)cc2)c2c1CNC2=O [Example 476, N-(3-oxo-7-(o-tolylamino)isoindolin-4-yl)-4-((3-(pyrrolidin-1-yl)propyl)amino)benzamide] |  |  | 500 |
| COc1ccccc1Nc1ccc(NC(=O)c2ccc(NCCN3CCCCC3)cc2)c2c1CNC2=O [Example 477, N-(7-((2-methoxyphenyl)amino)-3-oxoisoindolin-4-yl)-4-((2-(piperidin-1-yl)ethyl)amino)benzamide] |  |  | 420 |
| COc1ccccc1Nc1ccc(NC(=O)c2ccc(NCCCN3CCCCC3)cc2)c2c1CNC2=O [Example 478, N-(7-((2-methoxyphenyl)amino)-3-oxoisoindolin-4-yl)-4-((3-(piperidin-1-yl)propyl)amino)benzamide] |  |  | 490 |
| O=C(Nc1ccc(Nc2ccccc2)c2c1C(=O)NC2)c1ccc(NCCCN2CCCCC2)cc1 [Example 479, N-(3-oxo-7-(phenylamino)isoindolin-4-yl)-4-((3-(piperidin-1-yl)propyl)amino)benzamide] |  |  | 110 |
| O=C(Nc1ccc(Nc2ccccc2)c2c1C(=O)NC2)c1ccc(NCCCN2CCCCC2)cc1 [Example 480, N-(3-oxo-7-(phenylamino)isoindolin-4-yl)-4-((3-(piperidin-1-yl)propyl)amino)benzamide hydrochloride] |  |  | 220 |
| NCCNc1ccc(C(=O)Nc2ccc(Nc3ccccc3)c3c2C(=O)NC3)cc1 [Example 481, 4-((2-Aminoethyl)amino)-N-(3-oxo-7-(phenylamino)isoindolin-4-yl)benzamide] |  |  | 200 |
| Cc1ccccc1Nc1ccc(NC(=O)c2ccc(NCCN3CCCCC3)cc2)c2c1CNC2=O [Example 482, N-(3-oxo-7-(o-tolylamino)isoindolin-4-yl)-4-((2-(piperidin-1-yl)ethyl)amino)benzamide] |  |  | 420 |
| Cc1ccccc1Nc1ccc(NC(=O)c2ccc(NCCCN3CCCCC3)cc2)c2c1CNC2=O [Example 483, N-(3-oxo-7-(o-tolylamino)isoindolin-4-yl)-4-((3-(piperidin-1-yl)propyl)amino)benzamide] |  |  | 250 |
| O=C(Nc1ccc(Nc2ccccc2)c2c1C(=O)NC2)c1ccc(NCCCCO)cc1 [Example 484, 4-((4-Hydroxybutyl)amino)-N-(3-oxo-7-(phenylamino)isoindolin-4-yl)benzamide] |  |  | 290 |
| CC(=O)NCCNc1ccc(C(=O)Nc2ccc(Nc3ccccc3)c3c2C(=O)NC3)cc1 [Example 485, 4-((2-Acetamidoethyl)amino)-N-(3-oxo-7-(phenylamino)isoindolin-4-yl)benzamide] |  |  | 100 |
| NCCCNc1ccc(C(=O)Nc2ccc(Nc3ccccc3)c3c2C(=O)NC3)cc1 [Example 486, 4-((3-Aminopropyl)amino)-N-(3-oxo-7-(phenylamino)isoindolin-4-yl)benzamide] |  |  | 200 |
| O=C(Nc1ccc(Nc2ccccc2)c2c1C(=O)NC2)c1ccc(NCCO)cc1 [Example 487, 4-((2-Hydroxyethyl)amino)-N-(3-oxo-7-(phenylamino)isoindolin-4-yl)benzamide] |  |  | 97 |
| O=C(Nc1ccc(Nc2ccccc2)c2c1C(=O)NC2)c1ccc(NCC(O)CN2CCCCC2)cc1 (stereo not shown) [Example 488, 4-((2-Hydroxy-3-(piperidin-1-yl)propyl)amino)-N-(3-oxo-7-(phenylamino)isoindolin-4-yl)benzamide] |  |  | 93 |
| O=C(Nc1ccc(Nc2ccccc2)c2c1C(=O)NC2)c1ccc(NC[C@H](O)CN2CCCCC2)cc1 [Example 489, (S)-4-((2-hydroxy-3-(piperidin-1-yl)propyl)amino)-N-(3-oxo-7-(phenylamino)isoindolin-4-yl)benzamide] |  |  | 87 |
| O=C(Nc1ccc(Nc2ccccc2)c2c1C(=O)NC2)c1ccc(NC[C@@H](O)CN2CCCCC2)cc1 [Example 490, (R)-4-((2-hydroxy-3-(piperidin-1-yl)propyl)amino)-N-(3-oxo-7-(phenylamino)isoindolin-4-yl)benzamide] |  |  | 140 |
| NC1CCN(c2ccc(C(=O)Nc3ccc(Nc4ccccc4)c4c3C(=O)NC4)cc2)CC1 [Example 491, 4-(4-Aminopiperidin-1-yl)-N-(3-oxo-7-(phenylamino)isoindolin-4-yl)benzamide] |  |  | 110 |
| O=C(Nc1ccc(Nc2ccccc2)c2c1C(=O)NC2)c1ccc(NCCN2CCCCCC2)cc1 [Example 492, 4-((2-(Azepan-1-yl)ethyl)amino)-N-(3-oxo-7-(phenylamino)isoindolin-4-yl)benzamide] |  |  | 180 |
